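In this assay, cells in 96-well plates receive the compound at five concentrations for 48 hours. Endpoints are linearly interpolated between the surrounding concentrations. TGI denotes the concentration required for complete inhibition of growth.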
Assays:
Test in all cases: inhibition of tumour cell growth, NCI panel, 48 h
A498 renal = system: A498 renal
A549 NSCLC = system: A549 NSCLC
CCRF-CEM leukemia = system: CCRF-CEM leukemia
HCT-116 colon = system: HCT-116 colon
HL-60(TB) leukemia = system: HL-60(TB) leukemia
HOP-62 NSCLC = system: HOP-62 NSCLC
HOP-92 NSCLC = system: HOP-92 NSCLC
HT29 colon = system: HT29 colon
IGROV1 ovarian = system: IGROV1 ovarian
KM12 colon = system: KM12 colon
KM20L2 colon = system: KM20L2 colon
M14 melanoma = system: M14 melanoma
M19-MEL melanoma = system: M19-MEL melanoma
MOLT-4 leukemia = system: MOLT-4 leukemia
NCI-H226 lung = system: NCI-H226 lung
NCI-H23 lung = system: NCI-H23 lung
NCI-H460 lung = system: NCI-H460 lung
NCI-H522 lung = system: NCI-H522 lung
OVCAR-5 ovarian = system: OVCAR-5 ovarian
OVCAR-8 ovarian = system: OVCAR-8 ovarian
RXF 393 renal = system: RXF 393 renal
RXF-631 renal = system: RXF-631 renal
SF-295 CNS = system: SF-295 CNS
SK-MEL-28 melanoma = system: SK-MEL-28 melanoma
SK-OV-3 ovarian = system: SK-OV-3 ovarian
SNB-19 CNS = system: SNB-19 CNS
SNB-78 CNS = system: SNB-78 CNS
SR leukemia = system: SR leukemia
TK-10 renal = system: TK-10 renal
U251 CNS = system: U251 CNS
UACC-257 melanoma = system: UACC-257 melanoma
UACC-62 melanoma = system: UACC-62 melanoma
UO-31 renal = system: UO-31 renal
786-0 renal = system: 786-0 renal
ACHN renal = system: ACHN renal
COLO 205 colon = system: COLO 205 colon
DLD-1 colon = system: DLD-1 colon
DMS 114 small cell lung = system: DMS 114 small cell lung
DMS 273 small cell lung = system: DMS 273 small cell lung
EKVX NSCLC = system: EKVX NSCLC
HCC-2998 colon = system: HCC-2998 colon
HCT-15 colon = system: HCT-15 colon
HOP-18 NSCLC = system: HOP-18 NSCLC
K-562 leukemia = system: K-562 leukemia
LOX IMVI melanoma = system: LOX IMVI melanoma
LXFL 529 NSCLC = system: LXFL 529 NSCLC
MALME-3M melanoma = system: MALME-3M melanoma
OVCAR-3 ovarian = system: OVCAR-3 ovarian
RPMI-8226 leukemia = system: RPMI-8226 leukemia
SF-268 CNS = system: SF-268 CNS
SF-539 CNS = system: SF-539 CNS
SK-MEL-2 melanoma = system: SK-MEL-2 melanoma
SK-MEL-5 melanoma = system: SK-MEL-5 melanoma
SN12C renal = system: SN12C renal
SW-620 colon = system: SW-620 colon
XF 498 CNS = system: XF 498 CNS

Measured: TGI

CCNC(CCCC(NCC)P(=O)(O)O)P(=O)(O)O (centres undefined)
> 100 µM: A498 renal | A549 NSCLC | CCRF-CEM leukemia | HCT-116 colon | HL-60(TB) leukemia | HOP-62 NSCLC | HOP-92 NSCLC | HT29 colon | IGROV1 ovarian | KM12 colon | KM20L2 colon | M14 melanoma | M19-MEL melanoma | MOLT-4 leukemia | NCI-H226 lung | NCI-H23 lung | NCI-H460 lung | NCI-H522 lung | OVCAR-5 ovarian | OVCAR-8 ovarian | RXF 393 renal | RXF-631 renal | SF-295 CNS | SK-MEL-28 melanoma | SK-OV-3 ovarian | SNB-19 CNS | SNB-78 CNS | SR leukemia | TK-10 renal | U251 CNS | UACC-257 melanoma | UACC-62 melanoma | UO-31 renal

COc1cc2c(cc1OC)C(=O)N1CCCC1C(=O)S2 (centres undefined)
> 100 µM: 786-0 renal | A549 NSCLC | ACHN renal | CCRF-CEM leukemia | COLO 205 colon | DLD-1 colon | DMS 114 small cell lung | DMS 273 small cell lung | EKVX NSCLC | HCC-2998 colon | HCT-116 colon | HCT-15 colon | HL-60(TB) leukemia | HOP-18 NSCLC | HOP-62 NSCLC | HOP-92 NSCLC | IGROV1 ovarian | K-562 leukemia | KM12 colon | KM20L2 colon | LOX IMVI melanoma | LXFL 529 NSCLC | M14 melanoma | MALME-3M melanoma | MOLT-4 leukemia | NCI-H23 lung | NCI-H460 lung | NCI-H522 lung | OVCAR-3 ovarian | OVCAR-5 ovarian | OVCAR-8 ovarian | RPMI-8226 leukemia | RXF 393 renal | SF-268 CNS | SF-295 CNS | SF-539 CNS | SK-MEL-2 melanoma | SK-MEL-28 melanoma | SK-MEL-5 melanoma | SK-OV-3 ovarian | SN12C renal | SNB-19 CNS | SNB-78 CNS | SR leukemia | SW-620 colon | TK-10 renal | U251 CNS | UACC-257 melanoma | UACC-62 melanoma | UO-31 renal | XF 498 CNS
